Holding throughout (format): cell-based
Test [1] deals with Rat dopaminergic neurons (mesencephalic culture). The test can be described thus: TH neurons survival test after 48 h 6-OHDA injury on dopaminergic neurons. Particulars: for In vitro 6OHDA resistance: TH neurons survival after 48 h 6-OHDA (20 μM) injury. On the procedure: Rat dopaminergic neurons were cultured as described by Schinelli et al. (1988). Pregnant female rats of 15 days gestation were killed by cervical dislocation (Rats Wistar; Janvier) and the foetuses removed from the uterus. The embryonic midbrains were removed and placed in ice-cold medium of Leibovitz (L15; PanBiotech) containing 2% of Penicillin-Streptomycin (PS; PanBiotech) and 1% of bovine serum albumin (BSA; PanBiotech). Only the ventral portions of the mesencephalic flexure were used for the cell preparations as this is the region of the developing brain rich in dopaminergic neurons. The midbrains were dissociated by trypsinisation for 20 min at 37° C. (Trypsin EDTA 1×; PanBiotech). The reaction is stopped by the addition of Dulbecco's modified Eagle's medium (DMEM; PanBiotech) containing DNAase I grade II (0.1 mg/ml; PanBiotech) and 10% of foetal calf serum (FCS; Invitrogen). Cells were then mechanically dissociated by 3 passages through a 10 ml pipette and centrifuged at 180×g for 10 min at +4° C. on a layer of BSA (3.5%) in L15 medium. The supernatant was discarded and the cells of pellet were re-suspended in a defined culture medium consisting of Neurobasal (Invitrogen) supplemented with B27 (2%; Invitrogen), L-glutamine (2 mM; PanBiotech) and 2% of PS solution and 10 ng/ml of Brain-derived neurotrophic factor (BDNF, PanBiotech) and 1 ng/ml of Glial-Derived Neurotrophic Factor (GDNF, PanBiotech). Viable cells were counted in a Neubauer cytometer using the trypan blue exclusion test. The cells were seeded at a density of 40 000 cells/well in 96 well-plates (pre-coated with poly-L-lysine (Greiner)) and are cultured at 37° C. in a humidified air (95%)/CO2 (5%) atmosphere. Half of the medium was changed every 2 days with fresh medium. Five to six percents of the neuronal cell population were dopaminergic neurons. […]
Data are expressed in percentage of control conditions (no intoxication, no 6OHDA=100%) in order to express the 6OHDA injury. All values are expressed as mean+/−SEM (s.e. mean) of the 3 cultures (n=6 wells per condition per culture). […]

Test [2] has as its system Rat cortical neurons. The test can be described thus: MetO assay (oxidative stress) in human amyloid-β1-42 intoxicated cortical neurons. Further details: key: − and −− intensity of lowering effect of compositions; − and −− intensity of lowering effect of compositions. As to conditions: Aβ1-42 1.25 μM 4 hours; lowering effect. The method, then: (§1) Rat cortical neurons were cultured as described by Singer et al., 1999 [28]. Briefly pregnant female rats of 15 days gestation were killed by cervical dislocation (Rats Wistar) and the fetuses were removed from the uterus. The cortex were removed and placed in ice-cold medium of Leibovitz (L15) containing 2% of Penicillin 10.000 U/ml and Streptomycin 10 mg/ml and 1% of bovine serum albumin (BSA). Cortex were dissociated by trypsin (0.05%) for 20 min at 37° C. The reaction was stopped by the addition of Dulbecco's modified Eagle's medium (DMEM) containing DNase1 grade II (0.1 mg/mL) and 10% of fetal calf serum (FCS). Cells were then mechanically dissociated by 3 serial passages through a 10 ml pipette. Cells were then centrifuged at 515×g for 10 min at 10° C. The supernatant was discarded and the pellet of cells will be re-suspended in a defined culture medium consisting of Neurobasal supplemented with B27 (2%), L-glutamine (0.2 mM), 2% of PS solution and 10 ng/mL of BDNF. Viable cells were counted in a Neubauer cytometer using the trypan blue exclusion test. […]
(§2) Data are expressed in percentage of control conditions (no intoxication, no amyloid=100%) in order to express the amyloid injury. All values are expressed as mean+/−SEM (s.e. mean) of the 3 cultures (n=6 wells per condition). […]

In test [3] the test system is Rat cortical neurons. The test can be described thus: Cytoplasmic cytochrome C (CytoC) assay in human amyloid-β1-42 intoxicated cortical neurons. Also noted: key: − and −− intensity of lowering effect of compositions; − and −− intensity of lowering effect of compositions. As to conditions: Aβ1-42 1.25 μM 4 hours; lowering effect. On the procedure: as §1, §2

For the molecule `CC(=O)NCCCS(=O)(=O)O` [Acamprosate], in test [1], the “In vitro 6OHDA resistance” value was “improvement”. The “In vitro MetO level” value with Rat cortical neurons [2] is “−”. Also, the “In vitro CytC level” value in the test with Rat cortical neurons [3] was “−”.
With `NCC(CC(=O)O)c1ccc(Cl)cc1` (stereo not shown) [Baclofen], the “In vitro 6OHDA resistance” value in test [1] is given as “improvement”. Moreover, the “In vitro MetO level” value in the test on Rat cortical neurons [2] is given as “−”. Moreover, the “In vitro CytC level” value in the test on Rat cortical neurons [3] is “−”.

B1: BDNF: Brain-derived neurotrophic factor, used as a positive control (protein, UniProt P23560 19-247, looked up)
Neurotrophic factor BDNF …: APMKEANIRGQGGLAYPGVRTHGTLESVNGPKAGSRGLTSLADTFEHVIEELLDEDQKVRPNEENNKDADLYTSRVMLSSQVPLEPPLLFLLEEYKNYLDAANMSMRVRRHSDPARRGELSVCDSISEWVTAADKKTAVDMSGGTVTVLEKVPVSKGQLKQYFYETKCNPMGYTKEGCRGIDKRHWNSQCRTTQSYVRALTMDSKKRIGWRFIRIDTSCVCTLTIKRGR
B1: in test [1] (1 hour pre-treatment at 1.85 nM, positive control), the “protection of dopaminergic neurons from 6-OHDA injury” value is given as “significantly protected”.

The record behind these values is patent US9545389B2, “Baclofen and acamprosate based therapy of macular degeneration disorders” (PHARNEXT, priority 2012, dated 2017).
